Broadly, the logP is a log measure of how a compound divides between an organic and an aqueous phase. High values mean a more lipophilic compound, low ones a more hydrophilic compound.

In turn, `Nc1ccc2ccc3cccc4ccc1c2c34` showed a logP of 4.31. For `O=[N+]([O-])c1ccc2ccccc2c1` the value was 3.24; for `Cc1ccc2cccc([N+](=O)[O-])c2n1`, 1.99; for `O=[N+]([O-])c1cc([N+](=O)[O-])c2ccccc2c1`, 2.83. Then `COc1ccc(N)c(C)c1`, with 1.23; and `Nc1cccc2cc3ccccc3cc12`, with 3.69. Then `O=[N+]([O-])c1cccc2cccc([N+](=O)[O-])c12`, with 2.52; and `Nc1cc2ccccc2c2ccccc12`, with 3.56; and `Cc1ccc(C)c(N)c1`, with 1.83. Consider `Nc1ccc(Cl)cc1[N+](=O)[O-]`, for which the lipophilicity (logP) came to 2.72.

For the molecule `O=[N+]([O-])c1cccc2c([N+](=O)[O-])cccc12`, the logP amounted to 2.58. Then `Nc1ccc(Oc2ccccc2)cc1`, with 2.96; and `O=[N+]([O-])c1ccc2c3c(cccc13)CC2`, with 3.85; and `Cc1ccc(O)c(N)c1`, with 1.16. For `Nc1ccccc1-c1ccccc1N` the value was 1.34; for `Nc1ccc2c3c(cccc13)-c1ccccc1-2`, 4.2; for `Cc1ccc(N)c(N)c1`, 0.66. Then `Nc1ccc2c(c1)Cc1ccccc1-2`, with 3.14. On to `COc1cc(-c2ccc(N)c(OC)c2)ccc1N`, for which the logP was determined as 1.81.

For the molecule `Nc1cccc(C(F)(F)F)c1`, the logP worked out at 2.29. Then `O=C1Nc2ccc([N+](=O)[O-])cc2C1=O`, with 0.47; and `Nc1cccc2c1Cc1ccccc1-2`, with 3.18.

Molecule `Nc1cc(Cl)ccc1O` returned a logP of 1.81. For the molecule `Cc1ccc(N)cc1N`, the lipophilicity (logP) was 0.14.

The record behind these values is the OPERA property sets (Mansouri et al. 2018).
